# Experimental data from US20150273069A1, “FATTY ACID ACYLATED AMINO ACIDS FOR ORAL PEPTIDE DELIVERY” (NOVO NORDISK A/S, priority 2012, published 2015).
# Assays:
# [1] = Transport of semaglutide across Caco-2 cell monolayers in the presence of fatty acid acylated amino acids; type: in vitro ADME; details: human, Caco-2; permeation of semaglutide (100 μM), apical to basolateral, permeation enhancer: None, pH 7.4
# Procedure: (§1) Caco-2 cells were obtained from the American Type Culture Collection (Manassas, Va.). Cells were seeded in culturing flasks and passaged in Dulbecco's Modified Eagle′ medium supplemented with 10% fetal bovine serum, 1% penicillin/streptomycin (100 U/ml and 100 μg/ml, respectively), 1% L-glutamine and 1% nonessential amino acids. Caco-2 cells were seeded onto tissue culture treated polycarbonate filters in 12-well Transwell® plates (1.13 cm2, 0.4 μm pore size) at a density of 10^5 cells/well. Monolayers were grown in an atmosphere of 5% CO2-95% O2 at 37° C. Growth media were replaced every other day. The experiment was performed on day 10-14 after seeding of Caco-2 cells.
# (§2) The amount of compound transported from the donor chamber (apical side) to the receiver chamber (basolateral side) was measured. The transport study was initiated by adding 400 μl solution (100 μM of semaglutide+0.5 mM fatty acid acylated amino acids) and 0.4 μCi/μl [3H]manntiol in transport buffer to the donor chamber and 1000 μl transport buffer to the receiver chamber. The transport buffer consisted of Hank's balanced saline solution containing 10 mM HEPES, […] to pH 7.4 after addition of compounds. The transport of [^3H]mannitol, a marker for paracellular transport, was measured to verify the integrity of the epithelium.
# (§3) Before the experiment, the Caco-2 cells were equilibrated for 60 min with transport buffer on both sides of the epithelium. Buffer was then removed and the experiment initiated. Donor samples (20 μl) were taken at 0 min and at the end of the experiment. Receiver samples (200 μl) were taken every 15 min. The study was performed in an atmosphere of 5% CO2-95% O2 at 37° C. on a shaking plate (30 rpm).
# (§4) In all samples with semaglutide and mannitol, the concentration was determined using a LOCI assay and scintillation counter, respectively.
# (§5) Before and during the experiment the transepithelial electrical resistance (TEER) of the cell monolayers was monitored. In selected experiments, the transport buffer were changed to culturing medium after end of experiment and the TEER measured 24 h after experiment. The TEER was measured with EVOM™ Epithelial Voltohmmeter connected to Chopsticks.
# Caco-2 cell monolayers = assay: as above; type: in vitro ADME; details: for permeation enhancing effect: on semaglutide across Caco-2 monolayers, compared among the fatty acid acylated amino acids tested; for Papp: permeation of semaglutide (100 μM), apical to basolateral, with 0.5 mM fatty acid acylated amino acid, pH 7.4
# Procedure: as §1, §2, §3, §4, §5
structure (smiles),measurement,setting,value
"CC[C@H](C)[C@H](NC(=O)[C@H](Cc1ccccc1)NC(=O)[C@H](CCC(=O)O)NC(=O)[C@H](CCCCNC(=O)COCCOCCNC(=O)COCCOCCNC(=O)CC[C@H](NC(=O)CCCCCCCCCCCCCCCCC(=O)O)C(=O)O)NC(=O)[C@H](C)NC(=O)[C@H](C)NC(=O)[C@H](CCC(N)=O)NC(=O)CNC(=O)[C@H](CCC(=O)O)NC(=O)[C@H](CC(C)C)NC(=O)[C@H](Cc1ccc(O)cc1)NC(=O)[C@H](CO)NC(=O)[C@H](CO)NC(=O)[C@@H](NC(=O)[C@H](CC(=O)O)NC(=O)[C@H](CO)NC(=O)[C@@H](NC(=O)[C@H](Cc1ccccc1)NC(=O)[C@@H](NC(=O)CNC(=O)[C@H](CCC(=O)O)NC(=O)C(C)(C)NC(=O)[C@@H](N)Cc1cnc[nH]1)[C@@H](C)O)[C@@H](C)O)C(C)C)C(=O)N[C@@H](C)C(=O)N[C@@H](Cc1c[nH]c2ccccc12)C(=O)N[C@@H](CC(C)C)C(=O)N[C@H](C(=O)N[C@@H](CCCNC(=N)N)C(=O)NCC(=O)N[C@@H](CCCNC(=N)N)C(=O)NCC(=O)O)C(C)C [semaglutide, N-epsilon26-[2-(2-{2-[2-(2-{2-[(S)-4-carboxy-4-(17-carboxyheptadecanoylamino)butyrylamino]ethoxy}ethoxy)acetylamino]ethoxy}ethoxy)acetyl][Aib8,Arg34]GLP-1(7-37), reference compound]",Papp A→B at 100 μM,[1],0.0065 ×10⁻⁶ cm/s
CCCCCCCCCCCCCC(=O)N[C@H](C(=O)[O-])C(C)C.[Na+] [Sodium N-myristoyl L-valinate],permeation enhancing effect,Caco-2 cell monolayers,greatest effect
same,Papp,Caco-2 cell monolayers,78.83 10^−8 cm/s
CCCCCCCCCCCC(=O)N[C@@H](Cc1ccccc1)C(=O)[O-].[Na+] [Sodium N-dodecanoyl L-phenylalaninate],Papp,Caco-2 cell monolayers,5.60 10^−8 cm/s
CCCCCCCCCC(=O)N[C@@H](CC(N)=O)C(=O)[O-].[Na+] [Sodium N-decanoyl L-asparaginate],Papp,Caco-2 cell monolayers,0.31 10^−8 cm/s
CCCCCCCCCCCC(=O)N[C@@H](CC(C)C)C(=O)[O-].[Na+] [Sodium N-dodecanoyl L-leucinate],Papp,Caco-2 cell monolayers,2.53 10^−8 cm/s
CCCCCCCCCC(=O)N[C@@H](CC(C)C)C(=O)[O-].[Na+] [Sodium N-decanoyl L-leucinate],Papp,Caco-2 cell monolayers,2.12 10^−8 cm/s
CCCCCCCCCCCCCC(=O)N[C@@H](CC(C)C)C(=O)[O-].[Na+] [Sodium N-myristoyl L-leucinate],permeation enhancing effect,Caco-2 cell monolayers,greatest effect
same,Papp,Caco-2 cell monolayers,63.88 10^−8 cm/s
